Results reported in patent EP0303391B1, “Optical isomers of a spiroquinuclidine derivative” (State of Israel Represented by the Prime Minister's Office …, priority 1987, dated 1989).
Where two headings read alike, the source gives them in different places.

How the values were obtained:
[1] = biological target: T1, M₁ receptors (Rattus norvegicus, UniProt P08482); assay: biochemical; assay type: binding; settings: for a:c: ratio Ki(3H-PZ):Ki(3H-CD)
T1 sequence (P08482 1-460): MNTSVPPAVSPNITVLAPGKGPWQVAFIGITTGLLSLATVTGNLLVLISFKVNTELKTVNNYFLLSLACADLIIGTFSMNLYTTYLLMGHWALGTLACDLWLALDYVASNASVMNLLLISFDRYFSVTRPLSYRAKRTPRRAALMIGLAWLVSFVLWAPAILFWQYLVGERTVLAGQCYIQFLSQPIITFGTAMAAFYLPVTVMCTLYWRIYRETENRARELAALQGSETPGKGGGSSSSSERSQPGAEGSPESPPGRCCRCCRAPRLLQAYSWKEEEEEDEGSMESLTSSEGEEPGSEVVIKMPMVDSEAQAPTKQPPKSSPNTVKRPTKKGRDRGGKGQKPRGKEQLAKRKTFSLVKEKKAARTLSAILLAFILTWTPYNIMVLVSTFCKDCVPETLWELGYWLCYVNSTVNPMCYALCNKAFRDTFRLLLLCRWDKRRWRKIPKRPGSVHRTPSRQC

[2] = biological target: muscarinic receptors; assay type: binding, rat; settings: for Ki: rat forebrain homogenates, mean ± spread (n), Ki = IC50 ÷ (1 + C/KD), read-out: Ki(^3H-QNB)
[3] = biological target: muscarinic receptors; assay: Displacement of 3H-cis-dioxolane (3H-CD) from rat forebrain homogenates; assay type: binding
[4] = system: isolated guinea pig ileum; assay: Isolated guinea pig ileum induced contraction; assay type: cell-based
[5] = LD50 in mice; assay type: in vivo; settings: mouse, in vivo, HCl salts, read-out: LD₅₀
Description: (§1) The LD₅₀ in mice of (+)-, (-) and [for comparison] There are no significant differences in the toxicity of the tested compounds.

[6] = system: mice; assay: LD50 in mice; assay type: in vivo; settings: HCl salts
Description: as §1

[7] = system: AF64A and saline-injected rats; assay: Passive avoidance (step-through) retention in AF64A and saline-injected rats; assay type: in vivo, Sprague-Dawley rats; settings: for Retention latency after 72 hours: 0.2mg./kg. per os post-training, cut-off 600 secs., nine rats per group; for net latencies of AF64A-treated groups compared with the group treated with double distilled water: p < 0.005 for (-)-, p < 0.05 for (±)-cis
Description: Ethylcholine aziridinium ion (hereinafter denoted AF64A) is a selective presynaptic cholinergic neurotoxin, which on intracerebroventricular injection in rats induces persistent cholinergic hypofunction that mimics the cortical and hippocampal cholinegic deficiency and the cognitive impairments reported in SDAT. Accordingly, the possibility of reversal of the AF64A-induced effects by (-)- and [for comparison] (±)-cis-2-methylspiro(1,3-oxathiolan-5,3′)quinuclidine in the passive avoidance task was studied. In this experiment, the results of which are reported in Table 4, we investigated the effect of these substances (0.2mg./kg/., per os) on the retention after 72 hours of an inhibitory learning (passive avoidance-step through) task in AF64A and saline-injected rats, using a post-training drug treatment paradigm. The surgery carried out on the test animals (Sprague-Dawley rats raised by Charles River) was similar to that described in our prior published European Patent Application No. 0205247. The behavioral studies were performed one month after surgery.
The behavioral testing procedure comprised two phases, 1 and 2. In a pretest training procedure each rat was individually placed in a small lighted front compartment of a two-compartment box. After a 60 secs. familiarization/adaptation period, the door separating the two compartments was opened and a clock activated. The rat's latency to enter the large dark compartment of the box (to step-through) was measured. Immediately following entry into the dark compartment, the rat was subjected to an inescapable scrambled foot shock applied to the grid floor (0.6mA for 3 secs.). Sixty secs. after the termination of the shock, at the end of the training procedure, the rat was removed from the dark compartment and double distilled water, (-)- and (±)-cis-2-methylspiro(1,3-oxathiolan-5,3′)quinuclidine were administered per os. Rats were then returned to their home cage. Retention of the passive avoidance task was measured […]. after training by again placing the rat in the lighted front compartment, and after a 60 secs. adaptation period, measuring the latency to enter the dark compartment. The test session ended when a rat entered the dark compartment or after 600 secs. had elapsed. […]

[8] = index of M1 versus M2 selectivity

For C[N+](C)(C)CC#CCOC(=O)Nc1cccc(Cl)c1 [McN-A-343], the “a:b” value [1] was 0.35, the Ki ([1]; Ki(^3H-PZ)) was 4900 nM and the “a:c” value [1, 8] was 12.25. It also gave a Ki [2] of 14200 ± 1410 nM and a Ki ([3]; mean ± spread (n), Ki = IC50 ÷ (1 + C/KD)) of 400 ± 100 nM.

With CC1OC2(CS1)CN1CCC2CC1 (racemic) [(±)-trans-isomer, (±)-trans-2-methylspiro(1,3-oxathiolan-5,3')quinuclidine] the “a:b” value [1] was 0.59, the “a:c” value ([1]; index of M1 versus M2 selectivity, listed as 3) was 8.1 and the Ki ([1]; read-out: Ki(^3H-PZ)) was 14600 ± 2900 nM. The type of activity [4] was “agonist”.

CC1OC2(CS1)CN1CCC2CC1 (single isomer, unassigned; (+)) [(+)-cis-isomer, (+)-cis-2-methylspiro(1,3-oxathiolan-5,3')quinuclidine] showed an LD50 ([5]; female mice) of 45 mg/kg, an LD50 ([5]; male mice) of 39.1 mg/kg and a Ki ([1]; Ki(^3H-PZ)) of 9600 nM. The type of activity [4] was “inactive as agonist”.

CC1OC2(CS1)CN1CCC2CC1 (single isomer, unassigned; (-)) [(-)-cis-isomer, (-)-cis-2-methylspiro(1,3-oxathiolan-5,3')quinuclidine] gave an LD₅₀ ([6]; female mice) of 40 mg/kg, an LD₅₀ ([6]; male mice) of 35 mg/kg and a Ki ([1]; Ki(^3H-PZ)) of 1100 nM. The “times more potent in ³H-QNB displacement than its racemate” value ([2]; relative to (±)-cis-isomer) was 2.2, the type of activity [4] was “agonist” and the “Retention latency after 72 hours” value ([7]; AF64A-treated rats) was 563.5 (±23.6) seconds. The “net latencies of AF64A-treated groups compared with the group treated with double distilled water” value ([7]; AF64A-treated rats) was “significantly longer” and the “Retention latency after 72 hours” value ([7]; saline-treated rats) was 474 (±61.3) seconds.

CC(=O)OCC[N+](C)(C)C [Acetylcholine] showed an EC50 ([4]; Cavia porcellus, induced contraction of isolated guinea pig ileum) of 50 nM.

With CC1OC2(CS1)CN1CCC2CC1 (racemic) [(±)-cis-isomer, (±)-cis-2-methylspiro(1,3-oxathiolan-5,3')quinuclidine] the LD50 ([5]; female mice) was 40.8 mg/kg, the LD50 ([5]; male mice) was 45 mg/kg and the “a:b” value [1] was 0.10. The Ki ([1]; Ki(^3H-PZ)) was 600 nM, the “a:c” value [1, 8] was 1.4 and the type of activity [4] was “agonist”. For the same compound, the “Retention latency after 72 hours” value ([7]; AF64A-treated rats) was 407.9 (±72.1) seconds, the “net latencies of AF64A-treated groups compared with the group treated with double distilled water” value ([7]; AF64A-treated rats) was “significantly longer” and the “Retention latency after 72 hours” value ([7]; saline-treated rats) was 478.2 (±65.7) seconds.

In the case of O=C1CCCN1CC#CCN1CCCC1 [Oxotremorine], the Ki ([1]; Ki(^3H-PZ)) is reported as 600 nM, the “a:c” value [1, 8] is reported as 625 and the “a:b” value ([1]; ratio Ki(3H-PZ):Ki(3H-QNB), index of M1 versus M2 selectivity) is reported as 0.35. For the same compound, the Ki [2] was 1700 ± 300 nM and the Ki ([3]; footnote *: expressed in M x 10^-10) was 0.96 ± 0.42 nM.
